Data: patent US20230134843A1, “TREATMENT OF STEM CELL DEFICIENCY” (OSPEDALE SAN RAFFAELE S.R.L., priority 2020, published 2023)
“Also recorded” adds a separate entry of the source.

Tested on: CD3+ cells
Experiment: CD3+ cell (T cell) infiltration by immunohistochemistry, acute GVHD mouse model
Format: in vivo, mice
Settings: Fosaprepitant 10 mg/mL topically six times a day; day 29; p<0.001
Procedure: 10-week-old male BALB/C and C57BL/6N mice (Charles River Laboratory, Lecco, Italy) were used for all the experiments (n=5/each group). All mice were free from ocular surface disease at baseline. The housing conditions were controlled (temperature 22° C., light from 07:00-19:00, humidity 50%-60%), and fresh food and water were freely available. The animals were monitored 3 times per week for 28 days post-transplantation for in vivo slit-lamp microscopy imaging, ocular surface score and systemic GVHD score (FIG. 11A). Carbon dioxide inhalation and subsequent cervical dislocation were applied to euthanize the animals. All the experiments were approved by the Animal Care and Use Committee of the IRCCS San Raffaele Scientific Institute, in accordance with the ARVO Statement for the Use of Animals in Ophthalmic and Vision Research.
Allogenic BMT was conducted using the C57BL/6N and BALB/c mice as transplant donors and recipients, respectively. The recipient mice received total body irradiation (TBI) (900 cGy divided in two fractions) from a Cs source 1 day before the transplantation. The donor C57BL/6N mice were sacrificed on dry ice and they femur and spleen were harvested. The bones were gently crushed manually using a sterile stick, and bone marrow (BM) cells were released by mixing the fragments of bones with RPMI. The suspension of BM cells was filtered to remove the impurities inside. The spleens were also gently crushed into a cell suspension and filtered. Inventors suspended the BM cells and splenic cells with RPMI and adjusted the density of cells to 1×10^6/[…] and 2×10^6/[…], respectively. […]
Mice were sacrificed 28 days after BM transplantation (Day 29 post irradiation) by carbon dioxide inhalation. […] Following three washes with PBS-T, sections were incubated in anti-goat HRP for 15 minutes and then detected with a goat-on-rodent HRP-Polymer Kit (Biocare Medical). Primary antibody labeling was detected using brown DAB substrate (Vector Laboratories, Burlingame, Calif., USA). […]

SMILES: C[C@@H](O[C@H]1OCCN(Cc2nc(=O)n(P(=O)(O)O)[nH]2)[C@H]1c1ccc(F)cc1)c1cc(C(F)(F)F)cc(C(F)(F)F)c1 [Fosaprepitant, [3-{[(2R,3S)-2-[(1R)-1-[3,5-bis(trifluoromethyl)phenyl]ethoxy]-3-(4-fluorophenyl)morpholin-4-yl]methyl}-5-oxo-2H-1,2,4-triazol-1-yl]phosphonic acid]
- CD3+ cells infiltrating the conjunctiva: reduced; also recorded: significantly decreased
- CD3+ cells infiltrating the cornea: reduced; also recorded: significantly decreased
- CD3+ cells infiltrating the lacrimal gland: reduced; also recorded: significantly decreased
